Assay results published in ChEMBL document CHEMBL3046832, “Synthesis of some sulfonamides, disubstituted sulfonylureas or thioureas and some structurally related variants. A class of promising antitumor agents” (2007).

Legend:
Type in all cases: functional
[1] = tested on: MDA-MB-435; experiment: Cytotoxicity against Homo sapiens (human) MDA-MB-435 cells after 48 hr by SRB assay; conditions: MDA-MB-435, 48 h
[2] = tested on: M14; experiment: Cytotoxicity against Homo sapiens (human) M14 cells after 48 hr by SRB assay; conditions: M14, 48 h
[3] = tested on: LOX IMVI; experiment: Cytotoxicity against Homo sapiens (human) LOXIMVI cells after 48 hr by SRB assay
[4] = tested on: U-251; experiment: Cytotoxicity against Homo sapiens (human) U251 cells after 48 hr by SRB assay; conditions: U-251, 48 h
[5] = tested on: SNB-75; experiment: Cytotoxicity against Homo sapiens (human) SNB75 cells after 48 hr by SRB assay; conditions: SNB-75, 48 h
[6] = tested on: Hs-578T; experiment: Cytotoxicity against Homo sapiens (human) Hs578T cells after 48 hr by SRB assay
[7] = tested on: MCF7; experiment: Cytotoxicity against Homo sapiens (human) MCF7 cells after 48 hr by SRB assay; conditions: MCF7, 48 h
[8] = tested on: MDA-MB-231; experiment: Cytotoxicity against Homo sapiens (human) MDA-MB-231 cells after 48 hr by SRB assay; conditions: MDA-MB-231, 48 h
[9] = tested on: DU-145; experiment: Cytotoxicity against Homo sapiens (human) DU145 cells after 48 hr by SRB assay; conditions: DU-145, 48 h
[10] = tested on: UO-31; experiment: Cytotoxicity against Homo sapiens (human) UO31 cells after 48 hr by SRB assay; conditions: UO-31, 48 h
[11] = tested on: CAKI-1; experiment: Cytotoxicity against Homo sapiens (human) Caki1 cells after 48 hr by SRB assay; conditions: CAKI-1, 48 h
[12] = tested on: ACHN; experiment: Cytotoxicity against Homo sapiens (human) ACHN cells after 48 hr by SRB assay
[13] = tested on: 786-0; experiment: Cytotoxicity against Homo sapiens (human) 786-0 cells after 48 hr by SRB assay; conditions: 786-0, 48 h
[14] = tested on: OVCAR-8; experiment: Cytotoxicity against Homo sapiens (human) OVCAR8 cells after 48 hr by SRB assay; conditions: OVCAR-8, 48 h
[15] = tested on: OVCAR-5; experiment: Cytotoxicity against Homo sapiens (human) OVCAR5 cells after 48 hr by SRB assay; conditions: OVCAR-5, 48 h
[16] = tested on: OVCAR-4; experiment: Cytotoxicity against Homo sapiens (human) OVCAR4 cells after 48 hr by SRB assay; conditions: OVCAR-4, 48 h
[17] = tested on: IGROV-1; experiment: Cytotoxicity against Homo sapiens (human) IGROV1 cells after 48 hr by SRB assay; conditions: IGROV-1, 48 h
[18] = tested on: OVCAR-3; experiment: Cytotoxicity against Homo sapiens (human) OVCAR3 cells after 48 hr by SRB assay; conditions: OVCAR-3, 48 h
[19] = tested on: UACC-62; experiment: Cytotoxicity against Homo sapiens (human) UACC62 cells after 48 hr by SRB assay; conditions: UACC-62, 48 h
[20] = tested on: UACC-257; experiment: Cytotoxicity against Homo sapiens (human) UACC257 cells after 48 hr by SRB assay; conditions: UACC-257, 48 h
[21] = tested on: SK-MEL-5; experiment: Cytotoxicity against Homo sapiens (human) SK-MEL-5 cells after 48 hr by SRB assay; conditions: SK-MEL-5, 48 h
[22] = Cytotoxicity against Homo sapiens (human) breast cancer cells after 48 hr by SRB assay; conditions: Cancer cell lines
[23] = Cytotoxicity against Homo sapiens (human) prostate cancer cells after 48 hr by SRB assay; conditions: Cancer cell lines
[24] = Cytotoxicity against Homo sapiens (human) renal cancer cells after 48 hr by SRB assay; conditions: Cancer cell lines
[25] = Cytotoxicity against Homo sapiens (human) melanoma cells after 48 hr by SRB assay; conditions: Melanoma cell
[26] = Cytotoxicity against Homo sapiens (human) CNS cancer cells after 48 hr by SRB assay; conditions: Cancer cell lines
[27] = Cytotoxicity against Homo sapiens (human) colon cancer cells after 48 hr by SRB assay; conditions: Cancer cell lines
[28] = Cytotoxicity against Homo sapiens (human) non-small cell lung cancer cells after 48 hr by SRB assay; conditions: Cancer cell lines
[29] = tested on: NCI-H460; experiment: Cytotoxicity against Homo sapiens (human) NCI-H460 cells assessed as cellular growth after 48 hr by Alamar blue assay; design: concentration or dose not given beside the values
[30] = Cytotoxicity against Homo sapiens (human) leukemia cells after 48 hr by SRB assay; conditions: Leukemia cell
[31] = tested on: T47D; experiment: Cytotoxicity against Homo sapiens (human) T47D cells after 48 hr by SRB assay
[32] = tested on: SF-539; experiment: Cytotoxicity against Homo sapiens (human) SF539 cells after 48 hr by SRB assay; conditions: SF-539, 48 h
[33] = tested on: SF-295; experiment: Cytotoxicity against Homo sapiens (human) SF295 cells after 48 hr by SRB assay; conditions: SF-295, 48 h
[34] = tested on: SF-268; experiment: Cytotoxicity against Homo sapiens (human) SF268 cells after 48 hr by SRB assay; conditions: SF-268, 48 h
[35] = tested on: HCT-15; experiment: Cytotoxicity against Homo sapiens (human) HCT15 cells after 48 hr by SRB assay; conditions: HCT-15, 48 h
[36] = tested on: HT-29; experiment: Cytotoxicity against Homo sapiens (human) HT-29 cells after 48 hr by SRB assay; conditions: HT-29, 48 h
[37] = tested on: NCI-H522; experiment: Cytotoxicity against Homo sapiens (human) NCI-H522 cells after 48 hr by SRB assay; conditions: NCI-H522, 48 h
[38] = tested on: COLO 205; experiment: Cytotoxicity against Homo sapiens (human) COLO205 cells after 48 hr by SRB assay; conditions: COLO 205, 48 h
[39] = Cytotoxicity against Homo sapiens (human) NCI-H322 cells after 48 hr by SRB assay; conditions: NCI-H322, 48 h
[40] = tested on: EKVX; experiment: Cytotoxicity against Homo sapiens (human) EKVX cells after 48 hr by SRB assay
[41] = tested on: A549; experiment: Cytotoxicity against Homo sapiens (human) A549 cells after 48 hr by SRB assay; conditions: A549, 48 h
[42] = tested on: MOLT-4; experiment: Cytotoxicity against Homo sapiens (human) MOLT4 cells after 48 hr by SRB assay; conditions: MOLT-4, 48 h
[43] = tested on: CCRF-CEM; experiment: Cytotoxicity against Homo sapiens (human) CCRF-CEM cells after 48 hr by SRB assay
[44] = tested on: MCF7; experiment: Cytotoxicity against Homo sapiens (human) MCF7 cells assessed as cellular growth after 48 hr by Alamar blue assay; design: concentration or dose not given beside the values

Work on `O=C(NC(=S)NS(=O)(=O)c1ccc(N2N=C3c4ccccc4CC3C2c2cccs2)cc1)c1ccccc1` (configuration not stated) yielded a GI50 [1] of 21.7 µM, a GI50 [2] of 21.2 µM and a GI50 [3] of 15.2 µM. It also gave a GI50 [4] of 20.1 µM, a GI50 [5] of over 100 µM and a GI50 [6] of 16.1 µM. For the same molecule, the GI50 [7] was over 100 µM, the GI50 [8] was 22.5 µM and the GI50 [9] was 28.3 µM. For the same molecule, the GI50 [10] was 41.1 µM, the GI50 [11] was 26.1 µM and the GI50 [12] was over 100 µM. The GI50 [13] was 27.9 µM, the GI50 [14] was 20.3 µM and the GI50 [15] was 18.7 µM. The GI50 [16] was 87.6 µM, the GI50 [17] was 3.14 µM and the GI50 [18] was 30.6 µM. For the same molecule, the GI50 [19] was 14.6 µM, the GI50 [20] was 42.8 µM and the GI50 [21] was 16.9 µM. The GI50 [22] was 38.6 µM, the TGI [22] was 83.7 µM and the GI50 [23] was 29 µM. It also gave a TGI [23] of over 100 µM, a GI50 [24] of 45.8 µM and a TGI [24] of 87.2 µM. The GI50 [25] was 34.1 µM, the TGI [25] was 67.7 µM and the GI50 [26] was 53.3 µM. It also gave a TGI [26] of 90.9 µM, a GI50 [27] of 35.5 µM and a TGI [27] of 85.6 µM. For the same molecule, the GI50 [28] was 37.9 µM, the TGI [28] was 78.9 µM and the Activity [29] was “<=32%”. The GI50 [30] was 27.9 µM, the TGI [30] was 77.2 µM and the GI50 [31] was 69.6 µM. For the same molecule, the GI50 [32] was 27.9 µM, the GI50 [33] was 25.4 µM and the GI50 [34] was over 100 µM. For the same molecule, the GI50 [35] was 30.2 µM, the GI50 [36] was 46 µM and the GI50 [37] was 20.5 µM. For the same molecule, the GI50 [38] was 38.4 µM, the GI50 [39] was 14.2 µM and the GI50 [40] was 19.6 µM. For the same molecule, the GI50 [41] was 20.3 µM, the GI50 [42] was 26.2 µM and the GI50 [43] was 27.9 µM. For the same molecule, the Activity [44] was “<=32%”.
